Laboratory results published in US7935532B2, “DWF4 polynucleotides, polypeptides and uses thereof” (Arizona Board of Regents for and on behalf of Arizona State …, priority 1999, dated 2011).

Key:
6-week-old dwf4 plants = experiment: Treatment of soil-grown mature dwf4 plants with BR intermediates and BL (pedicel elongation); type: in vivo, Arabidopsis thaliana
Protocol: To determine whether the results of the seedling feeding experiments could be applicable to soil-grown mature plants, 6-week-old dwf4 plants were treated with BR intermediates and BL. Concentrations of applied intermediates were adjusted empirically to optimize responses. Consistent with the results obtained from the seedlings experiments, only 22α-hydroxylated compounds can rescue the dwf4 phenotype. The elongation response was only observed in the young tissues of the inflorescence, regardless of whether the BRs were applied locally or sprayed over the entire plant. In contrast to the striking elongation of the peduncles and pedicels, fertility was not restored by BR treatment. The sterility in dwf4 is hypothesized to be mechanical, which means that the filaments are shorter than the carpels such that the pollen is shed onto the ovary walls rather than onto the stigmatic surface. In fact, if dwf4 plants are hand pollinated using […], fertility increases.

dwf4 seedlings [1] = experiment: Feeding of BR biosynthetic intermediates to dwf4 seedlings in liquid media (rescue, dose-response); type: in vivo, Arabidopsis thaliana; details: for rescue of the light-grown dwf4 phenotype: liquid media
Protocol: In view of the results described above, we hypothesized that DWF4 mediates one or more of several steroid hydroxylation steps in the BR biosynthetic pathway. To test this, dwf4 was grown on all of the available biosynthetic intermediates in the BR biosynthetic pathways and examined to ascertain which intermediates could rescue the dwarf phenotype. In addition to the intermediates belonging to the early C-6 oxidation and late C-6 oxidation pathways (Choi et al. (1997), supra), 22α-hydroxycampesterol (22-OHCR), 6α-hydroxycastasterone (6-OHCT) (Takatsuto et al. (1997) J. Chem. Res. (synop.) 11:418-419), and […] (S. Takatsuto, T. Watanabe, T. Noguchi, and S. Fujioka, unpublished data) were synthesized and tested.
Germinated seedlings were transferred to media supplemented with one of the intermediates or BL to pinpoint the step catalyzed by DWF4. […] In addition, the rescued seedlings were less green than the dwarfs. These experiments were conducted in liquid media. Feeding experiments performed in the dark yielded similar results.
However, on CT the overall morphology of dwf4 was essentially rescued to wild-type phenotype at 3×10^−7 M and higher, whereas with 6-deoxoCT, rescue occurred with as little as 10^−7 M and may have even been inhibitory at higher concentrations. Of particular interest is the more dramatic response of the epicotyls versus the smaller response of the hypocotyls to CT. This same phenomenon was true for seedlings treated with >10^−7 M 6-deoxoCT.
A higher concentration of CT for dark-grown seedlings, compared with light-grown seedlings, 3×10^−6 M (FIG. 5B), was required to convert the hypocotyl to a length similar to that of the wild type.

dwf8-1 = experiment: Feeding of 22-OHCR to dwf8-1 dwarf mutant; type: in vivo, Arabidopsis thaliana; details: unpublished data
dwf4 seedlings [2] = experiment: Brassinolide response of seedlings in liquid culture (hypocotyl length); type: in vivo, Arabidopsis thaliana; details: liquid medium, 10^−6 M BL
Protocol: Gibberellic acid (GA) response was assayed on plants grown individually in 5.7-cm pots. Once inflorescences reached 1 to 2 mm in height, they were sprayed weekly with 1 mM GA3 (Sigma). Control plants were sprayed with water. One week after the third spraying, plants were collected, and the length of the main stem was measured between the top of the rosette and the base of the most distal pedicel; 13 to 18 plants of each line were measured per treatment. Auxin response was tested by growing seedlings for 10 days under 16 hr of light on vertically oriented agar plates containing various concentrations of 2,4-D (Gibco, Grand Island, N.Y.). Genetic interaction with the hy2 mutation was tested by growing seedlings under continuous light for 7 days. Brassinolide (BL) response was determined in liquid culture, as described by Clouse et al. (1993) supra, except that three or four seedlings were grown in each well of a 24-well culture plate for 7 days. Measurements were taken for 10 to 20 seedlings for each genotype and condition, under a dissection microscope fitted with an ocular micrometer.
In the course of our studies, we prepared a genomic library from dwf4-1, from which we isolated a clone in which a fragment of T-DNA interrupts a gene encoding a putative cytochrome P450 steroid hydroxylase.

rice lamina = details: Fujioka et al. (1995b); cited from earlier work

In the case of `CC(C)[C@H](C)C[C@H](O)[C@@H](C)[C@H]1CC[C@H]2[C@@H]3CC=C4C[C@@H](O)CC[C@]4(C)[C@H]3CC[C@]12C` [22-OHCR, 22α-hydroxycampesterol], the pedicel elongation response (6-week-old dwf4 plants; 22-OHCR 10^−5 M) is reported as “dramatic elongation response”, the “rescue of the light-grown dwf4 phenotype” value (dwf4 seedlings [1]; light-grown seedlings) is reported as “rescued” and the “effectiveness in rescuing the dwf4 phenotype, light versus dark” value (dwf4 seedlings [1]; unpublished data) is reported as “more effective in the light”. For the same compound, the “rescue of dwf8-1 dwarf mutant” value (dwf8-1) was “not rescued”.

With `CC(C)[C@H](C)[C@@H](O)[C@H](O)[C@@H](C)[C@H]1CC[C@H]2[C@@H]3COC(=O)[C@H]4C[C@H](O)[C@H](O)C[C@]4(C)[C@H]3CC[C@]12C` [BL, 2α, 3α, 22(R), 23(R)-tetrahydroxy-24(S)-methyl-B-homo-7-oxa-5α-cholestan-6-one] the “bioactivity in dwf4 pedicel elongation” value (6-week-old dwf4 plants; BL 10^−7 M) was “highest bioactivity”, the “degree of pedicel elongation response” value (6-week-old dwf4 plants; BL 10^−7 M versus precursors) was “approximately the same degree of response as its precursor compounds at 10^−6 M” and the dwf4 hypocotyl height (dwf4 seedlings [2]) was “restored to wild-type height”.

With `CC(C)[C@H](C)C[C@H](O)[C@@H](C)[C@H]1CC[C@H]2[C@@H]3CC(=O)[C@H]4C[C@@H](O)CC[C@]4(C)[C@H]3CC[C@]12C` [CT, Cathasterone] the “concentration required to convert the dwf4 hypocotyl to a length similar to wild type” value (dwf4 seedlings [1]; dark-grown seedlings) was 3 µM, the “concentration at which dwf4 overall morphology is rescued to wild-type phenotype” value (dwf4 seedlings [1]; light-grown seedlings, dose-response) was ≥ 3×10^−7 M and the “rescue of the light-grown dwf4 phenotype” value (dwf4 seedlings [1]; light-grown seedlings) was “rescued”. The “activity relative to 6-oxoCN” value (rice lamina) was ~500 times.
